Residues, ends and D or L forms follow the SMILES beside them. *: point of attachment. Cbz = O=C(OCc1ccccc1)*; NHOH = ON*

The first experiment deals with T1, Atroxlysin-I (Atr-I) (Bothrops atrox, UniProt P85420). Put plainly: biochemical. The class given is binding.
T1 sequence (P85420 whole entry, added parts left off): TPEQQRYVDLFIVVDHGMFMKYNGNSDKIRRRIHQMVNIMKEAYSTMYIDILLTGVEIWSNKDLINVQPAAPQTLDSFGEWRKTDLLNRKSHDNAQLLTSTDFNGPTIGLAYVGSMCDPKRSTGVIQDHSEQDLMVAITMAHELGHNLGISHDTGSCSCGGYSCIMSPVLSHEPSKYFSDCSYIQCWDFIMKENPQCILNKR
Broadly, the Ki is the dissociation constant of the complex between target and ligand, obtained from inhibition or displacement. Higher therefore signals weaker binding. `CC(C)(NS(=O)(=O)c1ccc(Oc2ccc(F)cc2)cc1)C(=O)NO` [CP4, CP471474]: affinity was put at a Ki of 160 ± 10 nM, the enthalpic contribution was -3.8 kcal/mol and the entropic contribution was 18.4 cal/K/mol.

With `CNC(=O)[C@@H](NC(=O)[C@H](CC(C)C)[C@H](O)C(=O)NO)C(C)(C)C` [MAR, marimastat], the inhibition constant (Ki) stood at 60 ± 10 nM, the enthalpic contribution was -1.5 kcal/mol and the entropic contribution came to 28.2 cal/K/mol.

Turning to `CC1(C)SCCN(S(=O)(=O)c2ccc(Oc3ccncc3)cc2)[C@H]1C(=O)NO` [PRI, prinomastat], the Ki worked out at 70 ± 50 nM, the enthalpic contribution is -0.8 kcal/mol and the entropic contribution is 30 cal/K/mol.

The next experiment addresses T1, Atroxlysin-I (Atr-I). Briefly: biochemical. This is another data set of the same source.
Broadly, the IC50 is the concentration that gives 50% inhibition. A lower IC50 goes with greater potency. Take `CNC(=O)[C@H](Cc1ccccc1)NC(=O)[C@H](CC(C)C)[C@H](CSc1cccs1)C(=O)NO` [BAT, batimastat]: the Hill coef. was 0.85 and the IC50 was 50 ± 30 nM.

For `CC(C)C[C@H](NC(=O)[C@@H]1CCCN1C(=O)OCc1ccccc1)C(=O)N[C@@H](C)C(=O)NO` [COL, collagenase-I inhibitor] (Cbz-Pro-Leu-Ala-{NHOH}), the Hill coef. was found to be 2.28 and the IC50 came out at 8000 ± 2000 nM.

`CC(C)(NS(=O)(=O)c1ccc(Oc2ccc(F)cc2)cc1)C(=O)NO` [CP4, CP471474]: the Hill coef. is listed as 2.37 and 20 ± 10 nM corresponded to half-maximal inhibition (IC50).

For the compound `CNC(=O)[C@@H](NC(=O)[C@H](CC(C)C)[C@H](O)C(=O)NO)C(C)(C)C` [MAR, marimastat], the Hill coef. was found to be 2.05 and the concentration for half-maximal inhibition (IC50) is 80 ± 10 nM.

On to `CNC(=O)[C@H](CCc1ccccc1)NC(=O)[C@H](CC(=O)NO)CC(C)C` [MMP, mmp-III inhibitor], for which the Hill coef. is listed as 1.79 and the 50% inhibitory concentration (IC50) came out at 50 ± 10 nM.

`CC1(C)SCCN(S(=O)(=O)c2ccc(Oc3ccncc3)cc2)[C@H]1C(=O)NO` [PRI, prinomastat]: the Hill coef. amounted to 0.77 and the IC50 was 160 ± 10 nM.

The target of another experiment is Leucurolysin-a (Leuc-a) (Bothrops leucurus, UniProt P84907). Briefly: biochemical.
Chain of Leucurolysin-a (Leuc-a) (P84907 whole entry, looked up): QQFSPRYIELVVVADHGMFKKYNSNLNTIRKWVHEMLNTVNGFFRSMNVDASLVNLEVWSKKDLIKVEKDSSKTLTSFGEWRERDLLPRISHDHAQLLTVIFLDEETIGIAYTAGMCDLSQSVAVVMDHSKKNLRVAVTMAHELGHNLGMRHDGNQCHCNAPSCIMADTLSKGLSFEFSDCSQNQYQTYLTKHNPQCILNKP
For the compound `CNC(=O)[C@H](Cc1ccccc1)NC(=O)[C@H](CC(C)C)[C@H](CSc1cccs1)C(=O)NO` [BAT, batimastat], the Hill coef. was 4.91 and half-maximal inhibition (IC50) required 12000 ± 1000 nM.

`CC(C)C[C@H](NC(=O)[C@@H]1CCCN1C(=O)OCc1ccccc1)C(=O)N[C@@H](C)C(=O)NO` [COL, collagenase-I inhibitor] (Cbz-Pro-Leu-Ala-{NHOH}) came in with a Hill coef. of 1.65 and an IC50 of 6000 ± 2000 nM.

`CC(C)(NS(=O)(=O)c1ccc(Oc2ccc(F)cc2)cc1)C(=O)NO` [CP4, CP471474] returned a Hill coef. of 0.55 and an IC50 of 210 ± 110 nM.

Consider `CNC(=O)[C@@H](NC(=O)[C@H](CC(C)C)[C@H](O)C(=O)NO)C(C)(C)C` [MAR, marimastat], for which the Hill coef. came to 0.78 and half-maximal inhibition (IC50) was put at 690 ± 20 nM.

Turning to `CNC(=O)[C@H](CCc1ccccc1)NC(=O)[C@H](CC(=O)NO)CC(C)C` [MMP, mmp-III inhibitor], the Hill coef. turned out to be 1.34 and the IC50 came to 360 ± 170 nM.

For the compound `CC1(C)SCCN(S(=O)(=O)c2ccc(Oc3ccncc3)cc2)[C@H]1C(=O)NO` [PRI, prinomastat], the Hill coef. was determined as 1.96 and half-maximal inhibition (IC50) was put at 20 ± 10 nM.

The values are drawn from paper PMC11684173 (ACS Omega, 2024).
